Test results reported in ChEMBL document CHEMBL4513101, “Naegleria gruberi Pathogen Box compounds screening” (2021).
The source made the active and inactive calls. Rule as the data show it: active = inhibition of 80% or more and inactive = less.

Test system: Naegleria gruberi
Experiment: microbe, parasite or virus in culture
Type: functional
Conditions: NEG-M, CONC 10 uM
Description: Growth inhibiting activity of Naegleria gruberi in vitro

SMILES: Cc1cc(C)c2cc(C(=O)NC3CCCCCCC3)[nH]c2c1
- inhibition at 10 µM: 30.2% (not active)

SMILES: CCc1nc2ccccc2n1CC(O)COc1cc(C)ccc1Cl (centres undefined)
- inhibition at 10 µM: 25.3% (not active)

SMILES: Cc1nc(-c2ccccn2)nc(N2CCC(Cc3ccccc3)C2)c1Cl (centres undefined)
- inhibition at 10 µM: 38.3% (not active)

SMILES: O=C(OCc1ccccc1)N1CCC(c2cc(-c3ccncc3)c(-c3ccc(F)cc3)[nH]2)CC1
- inhibition at 10 µM: 42.4% (not active)

SMILES: COc1cncc(-c2cncc(N3CCN(c4ccncc4)CC3)n2)c1
- inhibition at 10 µM: 26.8% (not active)

SMILES: COc1ccc(C2=NN(C3CCCCCC3)C(=O)C2(C)C)cc1OCCCCOc1ccc(-c2nn[nH]n2)cc1
- inhibition at 10 µM: 36.8% (not active)

SMILES: Cc1nnc(NC(=O)c2cn(-c3ccccc3)nc2-c2ccccc2C)o1
- inhibition at 10 µM: 34.7% (not active)

SMILES: CCNC(=O)C(C)Nc1nc(-c2cccnc2)nc2sc(C)c(C)c12 (centres undefined)
- inhibition at 10 µM: 12.2% (not active)

SMILES: Nc1nccc2ccc(-c3ccc4nccn4c3)cc12
- inhibition at 10 µM: 8.2% (not active)

SMILES: Cc1cc(NC(=O)c2ccc(S(=O)(=O)N(Cc3ccccc3)C(C)C)cc2)no1
- inhibition at 10 µM: 0% (not active)

SMILES: CC1=Nc2ccc(Cl)cc2C(O)(c2ccc(C)cc2)N1CCN1CCCCC1 (centres undefined)
- inhibition at 10 µM: 31.1% (not active)

SMILES: CCCNC(=O)N1CCC2(CC1)CC(=O)c1cc(C)ccc1O2
- inhibition at 10 µM: 11.6% (not active)

SMILES: CO[C@@H]1CN(c2ccc(C#CC3(O)CN4CCC3CC4)c(Cc3ccccc3)n2)C[C@H]1O (some centres undefined)
- inhibition at 10 µM: 0% (not active)

SMILES: CC1CCCCN1C(=O)NCCc1coc(-c2ccc(F)cc2)n1 (centres undefined)
- inhibition at 10 µM: 42.6% (not active)

SMILES: O=C1O[C@@H](COc2ccon2)CN1c1cc(F)c(C2=CCN(Cc3ccccc3)CC2)c(F)c1
- inhibition at 10 µM: 4.4% (not active)

SMILES: N#Cc1ccc(-c2cnc(N)c(-c3ccc(C(N)=O)cc3)n2)cc1
- inhibition at 10 µM: 21.8% (not active)

SMILES: CCCn1nnc(NC(=O)COc2ccc(C3CCCCC3)cc2)n1
- inhibition at 10 µM: 33% (not active)

SMILES: O=C(COc1cccc(F)c1)Nc1nc(-c2ccccn2)cs1
- inhibition at 10 µM: 24.2% (not active)

SMILES: COc1cccc(-c2cc3c(Nc4cccnc4)nccc3[nH]2)c1
- inhibition at 10 µM: 10% (not active)

SMILES: Nc1ncnc2[nH]nc(Cc3cccc4ccccc34)c12
- inhibition at 10 µM: 24% (not active)

SMILES: Cc1ccc2oc(-c3cc(NC(=O)Cc4ccccc4)ccc3Cl)nc2c1
- inhibition at 10 µM: 44.5% (not active)

SMILES: c1ccc(Oc2ccc(-c3cncc(-c4ccc5[nH]ccc5c4)n3)cc2)cc1
- inhibition at 10 µM: 11.4% (not active)

SMILES: Clc1ccc(CN2CCN(C3=NCCN3)CC2)cc1Cl
- inhibition at 10 µM: 23.3% (not active)

SMILES: CS(=O)(=O)c1ccccc1C(=O)N(Cc1ccccc1)c1ccccc1
- inhibition at 10 µM: 31.8% (not active)

SMILES: C[C@H]1c2cccc(O)c2C(=O)C2=C(O)[C@]3(O)C(=O)C(C(N)=O)=C(O)[C@@H](N(C)C)[C@@H]3[C@@H](O)[C@@H]21 [DOXYCYCLINE]
- inhibition at 10 µM: 59.8% (not active)

SMILES: FC(F)(F)c1cc(NCCc2ccccc2)nc(-c2ccccn2)n1
- inhibition at 10 µM: 24.6% (not active)

SMILES: C[C@H](C(N)=O)N1CCCC[C@H]1c1ccc(OCc2cccc(F)c2)cc1
- inhibition at 10 µM: 15.8% (not active)

SMILES: Cc1ccc2[nH]c3c(NCCN(C)C)ncnc3c2c1
- inhibition at 10 µM: 23.7% (not active)

SMILES: CC(Oc1cccc(Cl)c1)C(=O)Nc1ccc2oc(-c3ccncc3)nc2c1 (centres undefined)
- inhibition at 10 µM: 35.9% (not active)

SMILES: CO[C@@H](C(=O)N1Cc2[nH]nc(NC(=O)c3ccc(N4CCN(C)CC4)cc3)c2C1)c1ccccc1 [DANUSERTIB]
- inhibition at 10 µM: 41.3% (not active)

SMILES: CC(C(=O)Nc1ccc2oc(-c3ccncc3)nc2c1)c1ccccc1 (centres undefined)
- inhibition at 10 µM: 48.6% (not active)

SMILES: COc1ccc(-c2onc(C(F)(F)F)c2-c2ccc(Cl)cc2)c(O)c1
- inhibition at 10 µM: 45.5% (not active)

SMILES: COc1ccc2nc(C)cc(OCC(=O)NCc3ccccc3)c2c1
- inhibition at 10 µM: 41.1% (not active)

SMILES: COc1cc(Br)cc2cc(C(=O)Nc3cccc(C(F)(F)F)c3)c(=O)oc12
- inhibition at 10 µM: 21% (not active)

SMILES: CCCn1c(NC(=O)c2ccc3ccccc3n2)nc2ccccc21
- inhibition at 10 µM: 22.6% (not active)

SMILES: O=C(Nc1nc(-c2ccccn2)cs1)c1cncn1-c1ccccc1
- inhibition at 10 µM: 45.9% (not active)

SMILES: O=C(Cn1ccnc1[N+](=O)[O-])NCc1ccccc1 [BENZNIDAZOLE]
- inhibition at 10 µM: 37.4% (not active)

SMILES: CNC(=O)c1cc(S(=O)(=O)N2CCN(c3ccccn3)CC2)cs1
- inhibition at 10 µM: 32.9% (not active)

SMILES: Cn1c(=O)c2c(S(C)(=O)=O)snc2n(C)c1=O
- inhibition at 10 µM: 72.3% (not active)

SMILES: Clc1ccc(CCNc2cc(-c3ccccc3)nc3ncnn23)cc1
- inhibition at 10 µM: 44.5% (not active)

SMILES: Cc1ccc(S(=O)(=O)Nc2ccc(CN3CCN(C(=O)c4cccc(C#N)c4)CC3)cc2)cc1
- inhibition at 10 µM: 19.9% (not active)

SMILES: CCOC(=O)NC(=O)c1ccsc1NC(=O)c1nc2ccccc2s1
- inhibition at 10 µM: 89.3% (active)

SMILES: CC1=Nc2ccc(Cl)cc2C(c2ccccc2)N1CCNC(=O)CN(C)C (centres undefined)
- inhibition at 10 µM: 4.7% (not active)

SMILES: O=C(Nc1cccc(-c2ccc(NCCCN3CCCC3)nc2)c1)c1ccccc1
- inhibition at 10 µM: 8.2% (not active)

SMILES: CCOc1ccccc1C(=O)Nc1cccc(-c2nc3ncccn3c2C)c1
- inhibition at 10 µM: 34.5% (not active)

SMILES: COc1ccccc1C(C)NCC(=O)Nc1cc(C(F)(F)F)ccc1Cl (centres undefined)
- inhibition at 10 µM: 49.5% (not active)

SMILES: CS(=O)(=O)N1CCC(CCn2nc(Cc3cccc4ccccc34)c3c(N)ncnc32)CC1
- inhibition at 10 µM: 26.2% (not active)

SMILES: CO/C=C(/C(=O)OC)c1ccccc1Oc1cc(Oc2ccccc2C#N)ncn1 [AZOXYSTROBIN]
- inhibition at 10 µM: 33.7% (not active)

SMILES: CC(=O)N1CCc2cc3nc(C)cc(C)c3cc21
- inhibition at 10 µM: 19.9% (not active)

SMILES: CS(=O)(=O)c1cccc(-c2cnc3[nH]cc(-c4ccc(CCC(=O)O)cc4)c3c2)c1
- inhibition at 10 µM: 28.7% (not active)

SMILES: O=C(c1ccco1)N(CCCn1ccnc1)c1nc2c(Cl)cccc2s1
- inhibition at 10 µM: 68.6% (not active)

SMILES: N#CCN(CCCCN1CCN(c2ccc(F)cc2)CC1)C(=O)OCc1ccccc1
- inhibition at 10 µM: 21.3% (not active)

SMILES: NCC(=O)N1CCn2c(nc(-c3ccccc3)c2Nc2ccc3c(c2)OCO3)C1
- inhibition at 10 µM: 8.3% (not active)

SMILES: CCCS(=O)(=O)N1CCC(CO)(Cc2ccccc2C(F)(F)F)CC1
- inhibition at 10 µM: 19% (not active)

SMILES: Cc1ccc(-c2nc(CN(Cc3ccccn3)C(C)C)cs2)o1
- inhibition at 10 µM: 26.7% (not active)

SMILES: O=C(c1ccc(NCCO)cc1)C1C[C@H]1c1ccc(Cl)cc1 (some centres undefined)
- inhibition at 10 µM: 28.7% (not active)

SMILES: O=C(CN1CCOCC1)Nc1ccc2ncnc(Nc3ccc(OCc4cccc(F)c4)c(Cl)c3)c2c1
- inhibition at 10 µM: 17% (not active)

SMILES: CN1CCCC1CCO[C@](C)(c1ccccc1)c1ccc(Cl)cc1 (some centres undefined)
- inhibition at 10 µM: 64.4% (not active)

SMILES: Cc1cccc(-c2nc(Nc3ccncn3)c3sccc3n2)n1
- inhibition at 10 µM: 34% (not active)

SMILES: Cc1ccc2cc(C3NC(=O)c4ccccc4N3)c(Cl)nc2c1 (centres undefined)
- inhibition at 10 µM: 46.1% (not active)

SMILES: CCC(Sc1nc2ccccc2o1)C(=O)Nc1nccs1 (centres undefined)
- inhibition at 10 µM: 44.3% (not active)

SMILES: CC(C)(C(=O)Nc1ccc(F)cc1)n1cc(-c2ccccc2F)cn1
- inhibition at 10 µM: 30.2% (not active)

SMILES: Cc1cc(Cl)c(S(=O)(=O)N2CCCC2)cc1OCC(=O)NC1CCCCC1
- inhibition at 10 µM: 11% (not active)

SMILES: CC(c1cc(Cl)cc(Cl)c1)N(C)c1ncc2c(N)nc(N)nc2n1 (centres undefined)
- inhibition at 10 µM: 11% (not active)
